Assay results reported in publication PMC7519584 (Clinical cancer research : an official journal of the …, 2015).

Key:
HCC = conditions: sorafenib monotherapy, phase III trial in HCC (SHARP); cited from earlier work
[1] = human, in vivo
clinical = conditions: human, in vivo
[2] = ref NCT00610194; cited from earlier work
[3] = Plasma pharmacokinetics of refametinib, metabolite M17 and sorafenib; conditions: human, in vivo, Geometric mean maximum drug concentration (Cmax), multiple dose, day 1 of course 2, at the MTD, non-HCC patients

| Compound | Sorafenib dose at the MTD of the combination (in combination with refametinib 50 mg twice daily, 28-day courses) [mg twice daily] | Patients who achieved stable disease (HCC) [%] | Response rate (HCC) [%] | Multiple-dose AUC0–12 higher than single-dose AUC0–12 by an average of [1] | Accumulation after multiple dosing ([1]; 28 days) | half-life (clinical; Plasma half-life (geometric mean)) [h] | Tmax (clinical; po) [h] | MTD of refametinib monotherapy [2] [mg twice daily] | Patients with serious AEs considered possibly related to refametinib (human, in vivo) [patients] | Maximum tolerated dose (MTD) of refametinib (in combination with sorafenib 400 mg twice daily, 28-day courses) [mg twice daily] | Cmax [3] [ng/mL] |
| --- | --- | --- | --- | --- | --- | --- | --- | --- | --- | --- | --- |
| CNC(=O)c1cc(Oc2ccc(NC(=O)Nc3ccc(Cl)c(C(F)(F)F)c3)cc2)ccn1 [sorafenib] | 400 | 71 | 2 |  |  |  |  |  |  |  |  |
| COc1cc(F)c(F)c(Nc2ccc(I)cc2F)c1NS(=O)(=O)C1(C[C@H](O)CO)CC1 [refametinib] |  |  |  | approximately 40% | less than 2 fold | ~16 | ~3 | 50 | 10 | 50 | 674 |
